SMILES strings stand for the structures.

For 17 molecules, AC50 results are on record in ChEMBL document CHEMBL5291721, “A preclinical secondary pharmacology resource illuminates target-adverse drug reaction associations of marketed drugs” (Nat Commun, 2023).

For assay [1], the target named is T1, Muscarinic acetylcholine receptor M2 (Homo sapiens, UniProt P08172).
T1 sequence (P08172 whole entry): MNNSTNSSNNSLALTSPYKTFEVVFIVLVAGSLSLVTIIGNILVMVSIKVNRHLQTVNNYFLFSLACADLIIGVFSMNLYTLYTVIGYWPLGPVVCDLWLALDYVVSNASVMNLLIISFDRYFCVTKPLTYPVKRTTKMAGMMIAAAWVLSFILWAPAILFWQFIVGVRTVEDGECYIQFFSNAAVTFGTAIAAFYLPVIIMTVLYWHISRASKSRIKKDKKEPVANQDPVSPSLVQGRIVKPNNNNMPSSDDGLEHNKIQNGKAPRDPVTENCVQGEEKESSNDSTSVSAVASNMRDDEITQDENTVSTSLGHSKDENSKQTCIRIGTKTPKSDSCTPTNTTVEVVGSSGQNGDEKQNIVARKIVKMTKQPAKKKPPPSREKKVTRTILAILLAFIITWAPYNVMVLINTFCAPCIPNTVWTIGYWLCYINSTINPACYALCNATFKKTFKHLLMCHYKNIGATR

Assay [2] addresses 5-hydroxytryptamine receptor 2B (Homo sapiens, UniProt P41595). Format: functional, cell-based.
Assay [3] deals with Mu-type opioid receptor (Homo sapiens, UniProt P35372).
Chain of Mu-type opioid receptor (P35372 whole entry): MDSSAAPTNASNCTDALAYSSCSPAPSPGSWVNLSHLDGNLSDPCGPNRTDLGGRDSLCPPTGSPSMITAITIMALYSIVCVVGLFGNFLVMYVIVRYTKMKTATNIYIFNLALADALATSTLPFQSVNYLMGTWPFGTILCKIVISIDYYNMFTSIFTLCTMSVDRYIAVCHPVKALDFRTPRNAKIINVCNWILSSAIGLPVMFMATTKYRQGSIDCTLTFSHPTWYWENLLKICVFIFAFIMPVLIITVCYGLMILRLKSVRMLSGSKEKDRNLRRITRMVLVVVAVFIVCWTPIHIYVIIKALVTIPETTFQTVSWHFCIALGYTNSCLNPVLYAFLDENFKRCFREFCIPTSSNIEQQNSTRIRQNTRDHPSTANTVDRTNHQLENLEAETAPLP
The target of assay [4] is T2, Thromboxane A2 receptor (Homo sapiens, UniProt P21731).
T2 sequence (P21731 whole entry): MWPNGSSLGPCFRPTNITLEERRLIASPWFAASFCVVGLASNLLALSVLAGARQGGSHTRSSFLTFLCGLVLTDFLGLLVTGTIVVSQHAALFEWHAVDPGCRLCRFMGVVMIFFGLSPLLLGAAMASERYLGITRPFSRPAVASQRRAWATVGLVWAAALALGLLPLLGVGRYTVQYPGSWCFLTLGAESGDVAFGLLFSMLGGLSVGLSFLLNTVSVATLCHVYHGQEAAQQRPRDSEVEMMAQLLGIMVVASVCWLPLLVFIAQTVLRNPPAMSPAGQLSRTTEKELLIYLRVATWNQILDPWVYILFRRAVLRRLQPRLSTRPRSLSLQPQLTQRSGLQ
In kind it is functional, cell-based.

Assay [5] has as its target T3, Alpha-1A adrenergic receptor (Homo sapiens, UniProt P35348).
T3 sequence (P35348 whole entry): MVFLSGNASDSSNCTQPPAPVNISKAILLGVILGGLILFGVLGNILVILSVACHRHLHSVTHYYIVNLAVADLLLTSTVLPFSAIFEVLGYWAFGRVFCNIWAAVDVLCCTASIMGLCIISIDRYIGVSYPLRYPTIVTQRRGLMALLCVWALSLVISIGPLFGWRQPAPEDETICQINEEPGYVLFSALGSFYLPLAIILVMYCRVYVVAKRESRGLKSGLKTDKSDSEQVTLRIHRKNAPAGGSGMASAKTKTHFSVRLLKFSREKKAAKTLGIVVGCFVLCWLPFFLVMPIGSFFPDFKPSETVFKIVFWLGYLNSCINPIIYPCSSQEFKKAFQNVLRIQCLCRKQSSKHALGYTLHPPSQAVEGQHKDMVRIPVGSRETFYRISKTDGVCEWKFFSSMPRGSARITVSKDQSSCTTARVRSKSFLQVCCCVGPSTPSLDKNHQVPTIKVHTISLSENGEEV
In kind it is functional, cell-based.

Assay [6] has as its target Beta-1 adrenergic receptor (Homo sapiens, UniProt P08588). Format: functional.
Assay [7] deals with Vasopressin V1a receptor (Homo sapiens, UniProt P37288).
Chain of Vasopressin V1a receptor (P37288 whole entry): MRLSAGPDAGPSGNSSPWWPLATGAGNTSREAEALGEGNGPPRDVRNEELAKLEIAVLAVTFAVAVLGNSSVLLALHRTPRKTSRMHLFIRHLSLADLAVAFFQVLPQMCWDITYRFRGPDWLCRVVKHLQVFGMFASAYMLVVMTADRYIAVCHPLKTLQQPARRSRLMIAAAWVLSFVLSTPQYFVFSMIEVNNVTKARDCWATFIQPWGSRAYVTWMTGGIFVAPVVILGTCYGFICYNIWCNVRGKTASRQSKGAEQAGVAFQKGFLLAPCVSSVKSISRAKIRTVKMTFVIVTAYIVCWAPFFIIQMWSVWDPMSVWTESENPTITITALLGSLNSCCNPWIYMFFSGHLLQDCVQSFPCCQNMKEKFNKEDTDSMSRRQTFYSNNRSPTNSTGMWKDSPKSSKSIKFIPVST
Assay [8] deals with T4, B2 bradykinin receptor (Homo sapiens, UniProt P30411).
T4 sequence (P30411 whole entry): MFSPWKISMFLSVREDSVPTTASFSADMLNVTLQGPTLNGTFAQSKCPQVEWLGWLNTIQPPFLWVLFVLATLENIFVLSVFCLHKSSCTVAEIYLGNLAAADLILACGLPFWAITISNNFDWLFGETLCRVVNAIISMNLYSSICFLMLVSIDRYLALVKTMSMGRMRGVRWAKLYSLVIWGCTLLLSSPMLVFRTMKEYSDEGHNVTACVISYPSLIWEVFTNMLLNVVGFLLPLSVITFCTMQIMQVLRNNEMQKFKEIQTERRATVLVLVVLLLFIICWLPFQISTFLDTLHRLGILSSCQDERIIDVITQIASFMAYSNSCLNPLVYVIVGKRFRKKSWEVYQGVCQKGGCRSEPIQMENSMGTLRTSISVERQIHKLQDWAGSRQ

The target of assay [9] is 3',5'-cyclic-AMP phosphodiesterase 4A (Homo sapiens, UniProt P27815). In kind it is functional.
Chain of 3',5'-cyclic-AMP phosphodiesterase 4A (P27815 whole entry): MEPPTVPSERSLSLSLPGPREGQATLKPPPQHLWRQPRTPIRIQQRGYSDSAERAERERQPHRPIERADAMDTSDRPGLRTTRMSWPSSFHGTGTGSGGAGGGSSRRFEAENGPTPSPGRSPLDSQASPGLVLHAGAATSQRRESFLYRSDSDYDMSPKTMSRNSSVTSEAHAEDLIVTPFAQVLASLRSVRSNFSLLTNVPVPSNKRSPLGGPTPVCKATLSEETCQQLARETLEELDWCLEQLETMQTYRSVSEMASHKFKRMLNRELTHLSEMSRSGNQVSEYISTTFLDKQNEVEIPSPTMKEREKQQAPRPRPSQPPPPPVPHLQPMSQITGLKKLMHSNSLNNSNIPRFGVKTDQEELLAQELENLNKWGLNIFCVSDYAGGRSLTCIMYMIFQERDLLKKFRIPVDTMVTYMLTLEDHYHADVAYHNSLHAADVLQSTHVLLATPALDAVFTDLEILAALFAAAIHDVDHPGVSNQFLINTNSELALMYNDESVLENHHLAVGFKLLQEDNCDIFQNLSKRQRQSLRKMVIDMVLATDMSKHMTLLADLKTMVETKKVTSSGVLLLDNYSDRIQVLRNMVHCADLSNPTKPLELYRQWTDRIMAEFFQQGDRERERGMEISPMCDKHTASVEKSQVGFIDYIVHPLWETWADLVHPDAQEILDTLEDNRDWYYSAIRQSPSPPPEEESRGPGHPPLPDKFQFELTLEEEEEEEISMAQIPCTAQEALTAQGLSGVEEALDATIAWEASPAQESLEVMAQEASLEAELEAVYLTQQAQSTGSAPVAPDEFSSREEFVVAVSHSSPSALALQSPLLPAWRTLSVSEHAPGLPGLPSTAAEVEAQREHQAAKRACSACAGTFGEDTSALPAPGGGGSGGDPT
Assay [10] concerns the target D(3) dopamine receptor (Homo sapiens, UniProt P35462).
In assay [11] the target is Glutamate receptor ionotropic, NMDA 1 (Rattus norvegicus, UniProt P35439).
Note: assay procedure not described here.

Chain of 5-hydroxytryptamine receptor 2B (P41595 whole entry): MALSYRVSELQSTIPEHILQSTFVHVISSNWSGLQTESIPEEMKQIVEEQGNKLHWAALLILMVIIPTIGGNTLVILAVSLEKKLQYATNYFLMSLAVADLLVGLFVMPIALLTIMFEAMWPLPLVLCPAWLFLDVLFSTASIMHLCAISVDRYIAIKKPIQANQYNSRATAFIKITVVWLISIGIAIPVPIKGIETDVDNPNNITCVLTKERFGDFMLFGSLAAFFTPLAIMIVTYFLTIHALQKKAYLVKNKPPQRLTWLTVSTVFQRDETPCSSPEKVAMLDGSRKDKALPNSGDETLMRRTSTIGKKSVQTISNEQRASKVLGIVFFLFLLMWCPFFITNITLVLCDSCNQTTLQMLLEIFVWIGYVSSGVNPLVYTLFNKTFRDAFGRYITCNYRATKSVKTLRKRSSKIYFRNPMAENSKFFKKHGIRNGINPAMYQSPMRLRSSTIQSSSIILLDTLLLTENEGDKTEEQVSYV
Chain of D(3) dopamine receptor (P35462 whole entry): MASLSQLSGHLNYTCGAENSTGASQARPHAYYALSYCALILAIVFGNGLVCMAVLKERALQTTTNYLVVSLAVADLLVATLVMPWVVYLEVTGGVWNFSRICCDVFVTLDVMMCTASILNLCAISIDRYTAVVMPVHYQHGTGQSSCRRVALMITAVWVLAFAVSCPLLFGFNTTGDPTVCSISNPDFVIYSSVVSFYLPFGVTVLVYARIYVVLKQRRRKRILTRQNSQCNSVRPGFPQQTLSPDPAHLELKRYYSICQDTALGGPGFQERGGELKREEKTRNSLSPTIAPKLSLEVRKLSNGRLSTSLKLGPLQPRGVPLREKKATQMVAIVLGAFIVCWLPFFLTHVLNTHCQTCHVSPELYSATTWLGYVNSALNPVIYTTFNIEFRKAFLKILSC
Chain of Beta-1 adrenergic receptor (P08588 whole entry): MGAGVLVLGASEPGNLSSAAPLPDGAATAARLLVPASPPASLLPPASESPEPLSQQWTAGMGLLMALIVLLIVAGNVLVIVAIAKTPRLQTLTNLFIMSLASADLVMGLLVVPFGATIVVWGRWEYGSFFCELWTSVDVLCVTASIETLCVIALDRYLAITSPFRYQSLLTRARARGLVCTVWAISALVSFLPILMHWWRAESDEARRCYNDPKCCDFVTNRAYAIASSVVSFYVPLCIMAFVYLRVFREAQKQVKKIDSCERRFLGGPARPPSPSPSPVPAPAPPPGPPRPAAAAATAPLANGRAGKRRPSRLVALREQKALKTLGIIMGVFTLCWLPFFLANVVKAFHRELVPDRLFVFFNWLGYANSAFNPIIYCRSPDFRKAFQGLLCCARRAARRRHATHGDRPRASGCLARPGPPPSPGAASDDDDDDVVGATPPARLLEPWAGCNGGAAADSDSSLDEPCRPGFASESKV

For `O=c1[nH]cc(F)c(=O)[nH]1` [FLUOROURACIL], the AC50 in assay [1], in assay [2], in assay [3], in assay [4], in assay [5] and in assay [6] was above 30 µM throughout. Besides, the AC50 in assay [7], in [8], in assay [9] and in assay [10] was above 30 µM in each case.
Consider `CC#CC(=O)N1CCC[C@H]1c1nc(-c2ccc(C(=O)Nc3ccccn3)cc2)c2c(N)nccn12` [ACALABRUTINIB], for which the AC50 in assay [1], in [2], in assay [3], in assay [4], in [5] and in assay [9] was above 30 µM in each case. Besides, in [10], the AC50 is above 30 µM.
As for `N#Cc1ccnc(N2C(=O)CC[C@H]2C(=O)N(c2cncc(F)c2)[C@H](C(=O)NC2CC(F)(F)C2)c2ccccc2Cl)c1` [IVOSIDENIB], the AC50 in assay [1], in assay [2], in [3], in assay [4], in assay [5] and in assay [9] was above 30 µM in each case. In addition, the AC50 in assay [10] is above 30 µM.
Take `CC(C)(Oc1ccc(Cl)cc1)C(=O)NC(=O)NCN1CCOCC1` [PLAFIBRIDE]: the AC50 in assay [1], in assay [2], in [3], in [4], in [5] and in assay [9] was above 30 µM throughout. Besides, the half-maximal activity concentration (AC50) in assay [10] was above 30 µM.
Regarding `CCCCCCO[C@@H](C)c1cccc(-c2csc(NC(=O)c3cc(Cl)c(/C=C(\C)C(=O)O)c(Cl)c3)n2)c1OC` [LUSUTROMBOPAG], the AC50 is above 30 µM in [1]; above 30 µM in [2]; above 30 µM in assay [3]; above 30 µM in assay [4]; 13.5 µM in [5]; 16.2 µM in assay [9]. In addition, half-maximal activity in [10] (AC50) was put at 8.41 µM.
As to `CNC1(c2ccccc2Cl)CCCCC1=O` (stereo unspecified) [KETAMINE], the AC50 is above 30 µM in assay [1]; above 30 µM in assay [2]; 7.63 µM in assay [3]; above 30 µM in assay [4]; above 30 µM in assay [5]; above 30 µM in [9]. In assay [10], this molecule came in with an AC50 above 30 µM.
Regarding `CC1=C(C/C=C(\C)CCC[C@H](C)CCC[C@H](C)CCCC(C)C)C(=O)c2ccccc2C1=O` [PHYTONADIONE], the AC50 was above 30 µM in assay [1]; above 30 µM in assay [2]; above 30 µM in assay [3]; above 30 µM in assay [4]; above 30 µM in assay [5]; 9.52 µM in assay [9]. Also, the concentration at half-maximal activity (AC50) in assay [10] is above 30 µM.
On to `CCCCCCCC/C=C\CCCCCCCC(=O)O` [OLEIC ACID], for which the AC50 in [1], in assay [2], in assay [3], in assay [4], in assay [5] and in assay [9] was above 30 µM each time. In [10], this molecule returned a concentration at half-maximal activity (AC50) above 30 µM.
With `CS(=O)(=O)Nc1ccc([N+](=O)[O-])cc1Oc1ccccc1` [NIMESULIDE], the AC50 in assay [1], in assay [2], in assay [3], in assay [4], in assay [5] and in [6] was above 30 µM throughout. The AC50 is above 30 µM in assay [11]; above 30 µM in assay [7]; 20 µM in [8]; above 10 µM in assay [9]; above 30 µM in assay [10].
Take `CC(C)Nc1cccnc1N1CCN(C(=O)c2cc3cc(NS(C)(=O)=O)ccc3[nH]2)CC1` [DELAVIRDINE]: the AC50 is above 30 µM in assay [1]; above 30 µM in assay [2]; 13.9 µM in [3]; above 30 µM in assay [4]; above 30 µM in [5]; above 30 µM in assay [9]. For the same molecule, the AC50 in [10] is above 30 µM.
As to `CN1CCC(N(Cc2cccs2)c2ccccc2)CC1` [THENALIDINE], the AC50 in assay [1] is 0.699 µM; in assay [2], above 30 µM; in [3] it was 7.42 µM; in assay [4], above 30 µM; in assay [5], 23.5 µM; in assay [9] it was above 30 µM. This molecule returned an AC50 in [10] of 4.46 µM.
For the molecule `O=C(O)[C@H](O)[C@@H](O)[C@H](O)[C@H](O)CO` [GLUCONIC ACID], the AC50 in assay [1] is above 30 µM; in [2], above 30 µM; in assay [3], above 30 µM; in [4] it was above 30 µM; in assay [5], above 30 µM; in assay [9] it was 21.4 µM. Besides, the AC50 in assay [10] is above 30 µM.
Take `CC(C)NC[C@H](O)COc1ccc(O)cc1` [PRENALTEROL]: the AC50 in assay [1], in assay [2], in assay [3], in [4], in [5] and in assay [9] was above 30 µM in each case. Besides, in assay [10], the AC50 was above 30 µM.
On to `Cc1cc(C)cc(OCC2CNC(=O)O2)c1` (stereo unspecified) [METAXALONE], for which the AC50 in assay [1], in assay [2], in assay [3], in [4], in assay [5] and in assay [9] was above 30 µM throughout. The molecule also yielded an AC50 in assay [10] above 30 µM.
Regarding `Cc1ccc(C(C)C)c(O)c1` [THYMOL], the AC50 in [1] was above 30 µM; in assay [2], above 30 µM; in assay [3], above 30 µM; in assay [4], above 30 µM; in assay [5] it was 25.8 µM; in assay [9], above 30 µM. The molecule further registered an AC50 in assay [10] above 30 µM.
As to `C[C@]12CC[C@@H]3c4ccc(OC(=O)N(CCCl)CCCl)cc4CC[C@H]3[C@@H]1CC[C@@H]2OP(=O)(O)O` [ESTRAMUSTINE PHOSPHATE], the AC50 in [1], in [2], in assay [3], in assay [4], in [5] and in assay [9] was above 30 µM each time. For the same molecule, the AC50 in assay [10] is above 30 µM.
Regarding `C[C@@H](CN1CC(=O)NC(=O)C1)N1CC(=O)NC(=O)C1` [DEXRAZOXANE], the AC50 in [1], in assay [2], in assay [3], in assay [4], in [5] and in assay [9] was above 30 µM each time. In assay [10], this molecule returned an AC50 above 30 µM.
